Assay [1] addresses DNA repair and recombination protein RAD54-like (Homo sapiens, UniProt Q92698). Kind of assay: RAD54 Holliday junction migration blockers – biochemical, fluorescence, cherry-picked samples, dose series, confirmation (AID 651657). It is filed as functional.
For assay [2], the target named is T1, Small ubiquitin-related modifier 1 (Homo sapiens, UniProt P63165). Kind of assay: SUMO1 protein-protein binding blockers, potency – biochemical, FRET, dose response (AID 624383). It is filed as functional. The conditions noted are these: read-out: IC50_Mean.
The target in assay [3] is T1, Small ubiquitin-related modifier 1. Kind of assay: SUMO1 protein interaction blockers, potency – biochemical, fluorescence polarization, uHTS hits, dose response (AID 624382). It is filed as functional. The conditions noted are these: read-out: IC50_Mean. For orientation: Polarisation of emitted light reports the rotation of a fluorescent probe.
Assay [4] deals with T2, Carboxy-terminal domain RNA polymerase II polypeptide A small phosphatase 1 (Homo sapiens, UniProt Q9GZU7).
T2 sequence (Q9GZU7 whole entry): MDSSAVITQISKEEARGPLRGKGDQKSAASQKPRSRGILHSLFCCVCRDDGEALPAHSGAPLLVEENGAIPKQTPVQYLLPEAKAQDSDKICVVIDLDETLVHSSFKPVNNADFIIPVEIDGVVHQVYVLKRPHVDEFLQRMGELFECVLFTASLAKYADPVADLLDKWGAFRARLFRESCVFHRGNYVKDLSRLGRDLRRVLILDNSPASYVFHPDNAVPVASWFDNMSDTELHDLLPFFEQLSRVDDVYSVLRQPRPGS
Kind of assay: CTDSP1 inhibitors, concentration-response, biochemical, absorbance readout, ultra-high-throughput screen actives (AID 540297). It counts as functional.

The target in assay [5] is Dual specificity protein phosphatase 3 (Homo sapiens, UniProt P51452). Kind of assay: VHR phosphatase inhibition, dose response, selectivity assay for STEP inhibitor project, biochemical (AID 602374). It is filed as functional. The following applies: read-out: IC50_Mean.
Assay [6] has as its target Tyrosine-protein phosphatase non-receptor type 11 (Homo sapiens, UniProt Q06124). Kind of assay: PTPN11 enzyme inhibitors – biochemical, selectivity assay for STEP inhibitor project, dose response (AID 602367). It counts as functional. The conditions noted are these: read-out: IC50_Mean.
The target of assay [7] is Tyrosine-protein phosphatase non-receptor type 5 (Homo sapiens, UniProt P54829). As to the kind of experiment: PTPN5 enzyme inhibition – biochemical, fluorescence intensity, uHTS hits, confirmation (AID 602372). It is filed as functional. The following applies: read-out: IC50_Mean.
Assay [8] can be described thus: viability of uninfected HEp-2 cells – cell-based, HTS, cytotoxicity control for RSV inhibitor project, dose response (AID 2410). The following applies: human respiratory syncytial virus. It is filed as functional.
In a further assay the target is Melanocortin receptor 4 (Homo sapiens, UniProt P32245). It counts as functional, cell-based.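 Further: Cell-based assay with luminescence read-out, confirmatory dose-response testing for agonist activity of biased ligands at MC4R; human U2OS cells with tagged receptor and beta-arrestin; potency of agonists that increase receptor coupling to beta-arrestin.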
The target of assay [9] is T3, High affinity choline transporter 1 (Homo sapiens, UniProt Q9GZV3).
T3 sequence (Q9GZV3 whole entry): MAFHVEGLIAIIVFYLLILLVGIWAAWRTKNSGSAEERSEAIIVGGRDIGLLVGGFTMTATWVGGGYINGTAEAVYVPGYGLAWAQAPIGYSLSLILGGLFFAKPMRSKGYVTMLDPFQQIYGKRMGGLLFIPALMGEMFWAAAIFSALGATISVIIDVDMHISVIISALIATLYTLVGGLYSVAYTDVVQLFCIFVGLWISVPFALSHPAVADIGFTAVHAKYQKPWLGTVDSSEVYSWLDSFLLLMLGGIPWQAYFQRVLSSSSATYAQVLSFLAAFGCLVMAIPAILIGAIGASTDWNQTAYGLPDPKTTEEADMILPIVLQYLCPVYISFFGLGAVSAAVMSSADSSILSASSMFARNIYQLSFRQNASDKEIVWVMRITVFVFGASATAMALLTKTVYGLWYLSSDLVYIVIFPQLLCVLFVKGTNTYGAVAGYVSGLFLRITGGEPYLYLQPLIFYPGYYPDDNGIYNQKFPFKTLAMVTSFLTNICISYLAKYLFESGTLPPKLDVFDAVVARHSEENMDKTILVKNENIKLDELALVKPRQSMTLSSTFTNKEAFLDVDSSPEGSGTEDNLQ
Kind of assay: human choline transporter blockers, potency – cell-based, 5-point CRC, membrane potential dye, dose response (AID 504840). It is filed as functional.

Assay [10] addresses T3, High affinity choline transporter 1. As to the kind of experiment: human choline transporter blockers, potency – cell-based, 10-point CRC, membrane potential dye, dose response (AID 588401).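 Further: membrane potential dye fluorescence of choline-evoked depolarization via CHT.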 It is filed as functional.
Assay [11] concerns the target T4, Sentrin-specific protease 1 (Homo sapiens, UniProt Q9P0U3). As to the kind of experiment: Dose response confirmation of small molecule inhibitors of the catalytic domain of the SUMO protease, SENP1 in a FRET assay. It counts as functional. The following applies: read-out: IC50_Mean.
The target of assay [12] is T4, Sentrin-specific protease 1. Kind of assay: SENP1 catalytic domain blockers, concentration series – biochemical, kinetic FRET, dose response (AID 651697). It counts as functional. The following applies: read-out: IC50_Mean.

Calls of active or inactive are those of the source. Where only a bound is given, the exact number is not on record here.

T4 sequence (Q9P0U3 whole entry, the tested form may be a part): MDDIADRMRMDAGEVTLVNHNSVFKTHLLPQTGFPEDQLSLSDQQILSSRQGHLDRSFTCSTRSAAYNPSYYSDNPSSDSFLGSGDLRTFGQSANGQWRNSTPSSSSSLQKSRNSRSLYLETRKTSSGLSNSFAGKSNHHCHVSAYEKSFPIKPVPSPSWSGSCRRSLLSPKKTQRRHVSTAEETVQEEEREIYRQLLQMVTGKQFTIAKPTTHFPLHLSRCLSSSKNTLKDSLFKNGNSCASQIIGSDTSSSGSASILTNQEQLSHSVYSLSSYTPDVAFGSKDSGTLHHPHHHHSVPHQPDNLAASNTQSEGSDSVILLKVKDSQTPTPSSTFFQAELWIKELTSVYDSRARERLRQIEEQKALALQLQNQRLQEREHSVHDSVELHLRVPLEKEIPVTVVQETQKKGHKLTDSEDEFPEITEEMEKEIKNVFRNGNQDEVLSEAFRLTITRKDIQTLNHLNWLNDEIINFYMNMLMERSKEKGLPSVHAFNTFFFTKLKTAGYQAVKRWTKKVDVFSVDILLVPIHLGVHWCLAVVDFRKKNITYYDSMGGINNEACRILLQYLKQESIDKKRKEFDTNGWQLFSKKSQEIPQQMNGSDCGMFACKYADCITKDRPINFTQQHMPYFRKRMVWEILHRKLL
T1 sequence (P63165 whole entry): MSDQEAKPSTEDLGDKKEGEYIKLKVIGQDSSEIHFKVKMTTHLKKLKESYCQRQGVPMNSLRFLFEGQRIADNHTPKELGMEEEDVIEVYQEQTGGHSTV
Sequence of Dual specificity protein phosphatase 3 (P51452 whole entry): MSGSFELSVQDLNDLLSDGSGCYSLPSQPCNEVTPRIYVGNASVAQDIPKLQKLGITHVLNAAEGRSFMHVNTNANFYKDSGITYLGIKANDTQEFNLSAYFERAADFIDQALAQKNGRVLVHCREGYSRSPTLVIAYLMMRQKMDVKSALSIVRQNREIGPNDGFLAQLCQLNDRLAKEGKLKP
Sequence of Melanocortin receptor 4 (P32245 whole entry): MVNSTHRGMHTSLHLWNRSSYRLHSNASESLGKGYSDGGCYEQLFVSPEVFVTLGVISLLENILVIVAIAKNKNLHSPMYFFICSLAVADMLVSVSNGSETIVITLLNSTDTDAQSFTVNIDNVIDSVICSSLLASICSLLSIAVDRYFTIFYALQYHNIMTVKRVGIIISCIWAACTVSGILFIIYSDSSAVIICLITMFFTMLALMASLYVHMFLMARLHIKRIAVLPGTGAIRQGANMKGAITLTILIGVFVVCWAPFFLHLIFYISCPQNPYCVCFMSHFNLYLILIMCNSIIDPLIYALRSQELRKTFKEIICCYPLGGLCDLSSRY
Sequence of DNA repair and recombination protein RAD54-like (Q92698 whole entry): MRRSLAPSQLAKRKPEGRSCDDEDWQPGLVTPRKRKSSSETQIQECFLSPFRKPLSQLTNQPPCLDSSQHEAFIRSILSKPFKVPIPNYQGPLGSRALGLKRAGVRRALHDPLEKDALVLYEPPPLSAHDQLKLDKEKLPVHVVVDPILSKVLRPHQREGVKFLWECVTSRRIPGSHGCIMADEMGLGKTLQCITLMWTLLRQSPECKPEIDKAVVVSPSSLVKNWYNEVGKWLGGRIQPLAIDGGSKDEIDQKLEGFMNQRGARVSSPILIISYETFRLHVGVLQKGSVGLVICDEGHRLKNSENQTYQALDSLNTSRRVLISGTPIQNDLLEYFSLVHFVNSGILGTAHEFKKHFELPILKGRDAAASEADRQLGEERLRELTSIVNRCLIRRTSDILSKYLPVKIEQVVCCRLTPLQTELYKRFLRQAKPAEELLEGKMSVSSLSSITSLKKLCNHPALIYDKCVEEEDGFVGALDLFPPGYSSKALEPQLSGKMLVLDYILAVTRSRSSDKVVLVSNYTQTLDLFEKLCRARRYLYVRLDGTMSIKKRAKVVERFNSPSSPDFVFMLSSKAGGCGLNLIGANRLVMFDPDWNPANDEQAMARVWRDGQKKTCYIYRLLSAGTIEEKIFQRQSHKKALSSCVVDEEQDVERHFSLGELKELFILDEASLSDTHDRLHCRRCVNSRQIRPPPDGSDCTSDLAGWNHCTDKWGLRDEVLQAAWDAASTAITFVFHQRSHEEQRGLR
Sequence of Tyrosine-protein phosphatase non-receptor type 11 (Q06124 whole entry): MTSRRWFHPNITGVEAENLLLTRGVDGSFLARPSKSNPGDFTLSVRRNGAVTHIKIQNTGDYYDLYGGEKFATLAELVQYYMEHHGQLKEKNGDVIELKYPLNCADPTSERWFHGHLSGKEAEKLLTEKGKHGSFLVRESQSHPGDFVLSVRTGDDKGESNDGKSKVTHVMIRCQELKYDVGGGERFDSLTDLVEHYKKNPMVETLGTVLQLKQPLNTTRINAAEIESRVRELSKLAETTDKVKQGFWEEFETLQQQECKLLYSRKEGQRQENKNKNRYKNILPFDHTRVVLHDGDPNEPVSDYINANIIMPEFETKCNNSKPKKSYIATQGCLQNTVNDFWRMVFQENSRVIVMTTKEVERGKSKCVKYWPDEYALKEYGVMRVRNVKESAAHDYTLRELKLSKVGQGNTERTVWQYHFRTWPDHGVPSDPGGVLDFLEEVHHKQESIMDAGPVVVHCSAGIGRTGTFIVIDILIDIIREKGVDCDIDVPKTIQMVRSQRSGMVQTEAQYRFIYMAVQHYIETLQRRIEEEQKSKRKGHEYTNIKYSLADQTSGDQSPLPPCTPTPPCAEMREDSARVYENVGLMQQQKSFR
Sequence of Tyrosine-protein phosphatase non-receptor type 5 (P54829 whole entry): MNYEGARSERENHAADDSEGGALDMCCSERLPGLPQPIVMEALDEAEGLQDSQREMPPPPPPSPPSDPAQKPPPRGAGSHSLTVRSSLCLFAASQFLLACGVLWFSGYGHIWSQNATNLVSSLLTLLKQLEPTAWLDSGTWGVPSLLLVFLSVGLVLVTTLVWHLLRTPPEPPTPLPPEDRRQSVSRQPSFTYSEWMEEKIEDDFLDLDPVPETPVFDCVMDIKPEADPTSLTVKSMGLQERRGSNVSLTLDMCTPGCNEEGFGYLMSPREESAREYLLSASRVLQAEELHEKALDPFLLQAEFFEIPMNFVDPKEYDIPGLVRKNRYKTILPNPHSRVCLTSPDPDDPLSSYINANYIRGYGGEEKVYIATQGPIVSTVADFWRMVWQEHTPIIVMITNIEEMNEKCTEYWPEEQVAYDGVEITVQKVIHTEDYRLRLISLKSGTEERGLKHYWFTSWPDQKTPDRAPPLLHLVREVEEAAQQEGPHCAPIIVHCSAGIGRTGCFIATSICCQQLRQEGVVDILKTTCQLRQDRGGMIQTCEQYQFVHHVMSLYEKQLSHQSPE

As to `COc1cccc(-c2nc(N3CCN(Cc4ccccc4)CC3)c3ccccc3n2)c1O`, the AC50 (usually the concentration giving half of the maximal activity seen) in [1] is 100 µM (inactive).

With `O=C1Nc2ccc3sc4ccccc4c3c2C1=O`, the IC50 in assay [2] was 8.19 µM (active); in [3], > 66.6 µM (inactive); in [4], 4.35 µM (active); in [5], 2.49 µM (active); in assay [6] it was 3.25 µM (active); in assay [7], 15.2 µM (active). In addition, the CC50 (usually the concentration giving 50% cytotoxicity) in assay [8] was > 50 µM (active).

Regarding `COc1ccc(-c2cnc3c(NC(C)=O)cc(-c4cc(F)ccc4OC)cn23)cc1OC`, the EC50 (usually the concentration that produces a half-maximal response) on Melanocortin receptor 4 is > 89.2 µM (inactive).

On to `O=[N+]([O-])/C(C(=C(Cl)Cl)N1CCN(Cc2ccccc2)CC1)=C1\NCCN1Cc1ccc(Cl)nc1`, for which the IC50 in assay [9] is 6.15 µM (active); in assay [10] it was 5.39 µM (active).

In the case of `CCn1c(/C=C/c2cc(Br)ccc2O)nc2ccccc2c1=O`, the IC50 was 5.9 µM (active) in [11] and 12.5 µM (active) in assay [12].

(Values after ChEMBL document CHEMBL1201862, “PubChem BioAssay data set” (2004).)
